Laboratory results taken from the NIST ThermoML archive (doi:10.1016/j.tca.2013.10.024).
Where “and” joins values, the source holds several entries; their conditions need not be identical. Identical values can stand only once. Numbers after ± are expanded uncertainties.

Details: Crystal, Calculated from knudsen effusion weight loss

O=S(=O)([O-])[O-].[K+].[K+] [potassium sulfate]
Details | vapor or sublimation pressure
1276 K | 0.0003422 ± 7e-05 kPa
1277 K | 0.000463 ± 9.4e-05 kPa
1280 K | 0.0004126 ± 8.4e-05 kPa
1281 K | 0.0005285 ± 0.00011 kPa and 0.0002784 ± 5.7e-05 kPa
1282 K | 0.000452 ± 9.2e-05 kPa
1283 K | 0.0007481 ± 0.00015 kPa [middle of 5 runs]
1286 K | 0.0004333 ± 8.8e-05 kPa
1288 K | 0.0005671 ± 0.00012 kPa and 0.0005922 ± 0.00012 kPa and 0.0005203 ± 0.00011 kPa
1290 K | 0.0009328 ± 0.00019 kPa and 0.0004622 ± 9.4e-05 kPa
1292 K | 0.000853 ± 0.00017 kPa and 0.0003739 ± 7.6e-05 kPa and 0.0005323 ± 0.00011 kPa
1296 K | 0.0006593 ± 0.00013 kPa and 0.0005992 ± 0.00012 kPa
1297 K | 0.001092 ± 0.00023 kPa
1300 K | 0.0007532 ± 0.00015 kPa [middle of 4 runs]
1301 K | 0.0007786 ± 0.00016 kPa
1302 K | 0.0004586 ± 9.3e-05 kPa and 0.0006547 ± 0.00013 kPa
1303 K | 0.0003659 ± 7.4e-05 kPa
1304 K | 0.0006238 ± 0.00013 kPa
1305 K | 0.0008515 ± 0.00017 kPa [middle of 4 runs]
1306 K | 0.001457 ± 0.00031 kPa
1308 K | 0.0009057 ± 0.00018 kPa
1309 K | 0.0005351 ± 0.00011 kPa and 0.000795 ± 0.00016 kPa
1311 K | 0.001559 ± 0.00033 kPa
1313 K | 0.001473 ± 0.00032 kPa
1314 K | 0.001 ± 0.0002 kPa and 0.0008818 ± 0.00018 kPa
1315 K | 0.0006036 ± 0.00012 kPa
1317 K | 0.000929 ± 0.00019 kPa
1318 K | 0.000916 ± 0.00019 kPa and 0.0006586 ± 0.00013 kPa
1320 K | 0.001024 ± 0.00022 kPa
1325 K | 0.001188 ± 0.00025 kPa and 0.001093 ± 0.00023 kPa
1326 K | 0.0008296 ± 0.00017 kPa
1330 K | 0.0008553 ± 0.00017 kPa and 0.001278 ± 0.00027 kPa
1332 K | 0.001415 ± 0.0003 kPa
1334 K | 0.00134 ± 0.00029 kPa
1335 K | 0.001459 ± 0.00031 kPa
1336 K | 0.001412 ± 0.0003 kPa
1341 K | 0.001475 ± 0.00032 kPa
1343 K | 0.001564 ± 0.00034 kPa
1347 K | 0.001721 ± 0.00037 kPa
1349 K | 0.001744 ± 0.00038 kPa
1352 K | 0.001919 ± 0.00041 kPa
1355 K | 0.001941 ± 0.00042 kPa
1359 K | 0.002022 ± 0.00044 kPa
